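Results reflect a 48-hour exposure of cells in 96-well plates to compound at five concentrations. At the TGI there is no net growth.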
Key:
Assay in all cases: inhibition of tumour cell growth, NCI panel, 48 h
OVCAR-5 ovarian = system: OVCAR-5 ovarian
U251 CNS = system: U251 CNS
SK-MEL-5 melanoma = system: SK-MEL-5 melanoma
SF-539 CNS = system: SF-539 CNS
SF-268 CNS = system: SF-268 CNS
NCI-H522 lung = system: NCI-H522 lung
CAKI-1 renal = system: CAKI-1 renal
M19-MEL melanoma = system: M19-MEL melanoma
DLD-1 colon = system: DLD-1 colon
DMS 114 small cell lung = system: DMS 114 small cell lung
CCRF-CEM leukemia = system: CCRF-CEM leukemia
SF-295 CNS = system: SF-295 CNS
RPMI-8226 leukemia = system: RPMI-8226 leukemia
OVCAR-4 ovarian = system: OVCAR-4 ovarian
HCT-116 colon = system: HCT-116 colon
LXFL 529 NSCLC = system: LXFL 529 NSCLC
M14 melanoma = system: M14 melanoma
SK-MEL-28 melanoma = system: SK-MEL-28 melanoma
K-562 leukemia = system: K-562 leukemia
SNB-75 CNS = system: SNB-75 CNS
SR leukemia = system: SR leukemia
EKVX NSCLC = system: EKVX NSCLC
SNB-78 CNS = system: SNB-78 CNS
HCC-2998 colon = system: HCC-2998 colon
HL-60(TB) leukemia = system: HL-60(TB) leukemia
MALME-3M melanoma = system: MALME-3M melanoma
NCI-H460 lung = system: NCI-H460 lung
SK-MEL-2 melanoma = system: SK-MEL-2 melanoma
NCI-H23 lung = system: NCI-H23 lung
UO-31 renal = system: UO-31 renal
TK-10 renal = system: TK-10 renal
DMS 273 small cell lung = system: DMS 273 small cell lung
SNB-19 CNS = system: SNB-19 CNS
KM20L2 colon = system: KM20L2 colon
UACC-257 melanoma = system: UACC-257 melanoma
HOP-18 NSCLC = system: HOP-18 NSCLC
RXF 393 renal = system: RXF 393 renal
LOX IMVI melanoma = system: LOX IMVI melanoma
HOP-92 NSCLC = system: HOP-92 NSCLC
KM12 colon = system: KM12 colon
A498 renal = system: A498 renal
MOLT-4 leukemia = system: MOLT-4 leukemia
XF 498 CNS = system: XF 498 CNS
RXF-631 renal = system: RXF-631 renal
HT29 colon = system: HT29 colon
HCT-15 colon = system: HCT-15 colon
SK-OV-3 ovarian = system: SK-OV-3 ovarian
OVCAR-8 ovarian = system: OVCAR-8 ovarian
UACC-62 melanoma = system: UACC-62 melanoma
786-0 renal = system: 786-0 renal
SW-620 colon = system: SW-620 colon
IGROV1 ovarian = system: IGROV1 ovarian
A549 NSCLC = system: A549 NSCLC
SN12C renal = system: SN12C renal
HOP-62 NSCLC = system: HOP-62 NSCLC
ACHN renal = system: ACHN renal

Compound CCCCCCCCCCNC(=S)OCCCC has a TGI (OVCAR-5 ovarian) of 29 µM, a TGI (U251 CNS) of 37.5 µM and a TGI (SK-MEL-5 melanoma) of 33.3 µM. The TGI (SF-539 CNS) was 48.3 µM, the TGI (SF-268 CNS) was 58.7 µM and the TGI (NCI-H522 lung) was 42.4 µM. For the same compound, the TGI (CAKI-1 renal) was 61.1 µM, the TGI (M19-MEL melanoma) was > 100 µM and the TGI (DLD-1 colon) was 85.4 µM. The TGI (DMS 114 small cell lung) was 45.8 µM, the TGI (CCRF-CEM leukemia) was 37.6 µM and the TGI (SF-295 CNS) was > 100 µM. The TGI (RPMI-8226 leukemia) was 34.9 µM, the TGI (OVCAR-4 ovarian) was > 100 µM and the TGI (HCT-116 colon) was 34.7 µM. It also gave a TGI (LXFL 529 NSCLC) of 55.6 µM, a TGI (M14 melanoma) of 52.4 µM and a TGI (SK-MEL-28 melanoma) of 72.2 µM. It also gave a TGI (K-562 leukemia) of 36.6 µM, a TGI (SNB-75 CNS) of 86.7 µM and a TGI (SR leukemia) of 38 µM. It also gave a TGI (EKVX NSCLC) of 65.8 µM, a TGI (SNB-78 CNS) of 88.4 µM and a TGI (HCC-2998 colon) of 57 µM. For the same compound, the TGI (HL-60(TB) leukemia) was 31.2 µM, the TGI (MALME-3M melanoma) was 54.8 µM and the TGI (NCI-H460 lung) was 43.5 µM. The TGI (SK-MEL-2 melanoma) was 27.7 µM, the TGI (NCI-H23 lung) was 53.9 µM and the TGI (UO-31 renal) was 60.3 µM. The TGI (TK-10 renal) was 45 µM, the TGI (DMS 273 small cell lung) was 42.3 µM and the TGI (SNB-19 CNS) was > 100 µM. The TGI (KM20L2 colon) was 37.7 µM, the TGI (UACC-257 melanoma) was 49.3 µM and the TGI (HOP-18 NSCLC) was 81.5 µM. The TGI (RXF 393 renal) was 59.5 µM, the TGI (LOX IMVI melanoma) was 29.8 µM and the TGI (HOP-92 NSCLC) was 41.1 µM. For the same compound, the TGI (KM12 colon) was 29.9 µM, the TGI (A498 renal) was 62.6 µM and the TGI (MOLT-4 leukemia) was 32.6 µM. The TGI (XF 498 CNS) was 39.8 µM, the TGI (RXF-631 renal) was 87.1 µM and the TGI (HT29 colon) was 37.4 µM. The TGI (HCT-15 colon) was 39.7 µM, the TGI (SK-OV-3 ovarian) was 77.3 µM and the TGI (OVCAR-8 ovarian) was > 100 µM. For the same compound, the TGI (UACC-62 melanoma) was 53.1 µM, the TGI (786-0 renal) was 76.3 µM and the TGI (SW-620 colon) was 35.2 µM. It also gave a TGI (IGROV1 ovarian) of 87.3 µM, a TGI (A549 NSCLC) of 73.6 µM and a TGI (SN12C renal) of 38.2 µM. For the same compound, the TGI (HOP-62 NSCLC) was 68.7 µM and the TGI (ACHN renal) was 69.3 µM.
